Measured values reported in patent US8067598B2, “Heterofused piperidines as orexin antagonists” (Hoffman-La Roche Inc., priority 2007, dated 2011).
No end group written: not given here.

Assays:
[1] = molecular target: T1, human orexin-2 (hOX2) receptors (Homo sapiens, UniProt O43614); assay: Intracellular Ca2+ mobilization assay (FLIPR), CHO(dHFr-) cells expressing hOX2; assay type: cell-based; settings: antagonism of orexin-A at EC80; Kb=IC50/(1+[A]/EC50); CHO(dHFr-)-OX2R cells
T1 construct: expressed in transfected cells
T1 sequence (O43614 1-444): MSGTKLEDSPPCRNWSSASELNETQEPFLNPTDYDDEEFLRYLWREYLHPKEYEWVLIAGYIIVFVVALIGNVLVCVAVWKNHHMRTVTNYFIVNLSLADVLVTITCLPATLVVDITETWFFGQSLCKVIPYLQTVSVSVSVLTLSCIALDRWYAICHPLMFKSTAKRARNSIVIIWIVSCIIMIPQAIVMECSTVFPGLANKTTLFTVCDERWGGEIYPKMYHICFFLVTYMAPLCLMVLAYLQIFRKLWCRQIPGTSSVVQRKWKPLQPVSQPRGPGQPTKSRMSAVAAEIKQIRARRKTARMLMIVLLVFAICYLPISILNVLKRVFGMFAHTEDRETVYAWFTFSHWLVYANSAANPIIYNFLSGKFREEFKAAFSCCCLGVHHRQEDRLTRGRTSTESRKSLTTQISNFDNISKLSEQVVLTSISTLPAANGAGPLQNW
Description: (§1) Intracellular Ca^2+ Mobilization Assay
(§2) The Chinese Hamster Ovary (dHFr-) mutant cell line stably expressing human orexin-1 (hOX1) or human orexin-2 (hOX2) receptors were maintained in Dulbecco's Modified Eagle Medium (1X) with GlutaMax™ 1, 4500 mg/L D-Glucose and Sodium Pyruvate (Catalog No. 31966-021, Invitrogen, Carlsbad, Calif.), 5% dialyzed fetal calf serum (Catalog No. 26400-044), 100 μg/ml penicillin and 100 μg/ml streptomycin. The cells were seeded at 5×10^4 cells/well in the poly-D-lysine treated, 96-well, black/clear-bottomed plates (Catalog No. BD356640, BD Biosciences, Palo Alto, Calif.). 24 h later, the cells were loaded for 1 h at 37° C. with 4 μM Flou-4 acetoxymethyl ester (Catalog No. F-14202, Molecular Probes, Eugene, Oreg.) in FLIPR buffer (1×HBSS, 20 mM HEPES, 2.5 mM Probenecid). Hanks' Balanced Salt Solution (HBSS) (10X) (catalog No. 14065-049) and HEPES (1M) (catalog No. 15630-056) were purchased from Invitrogen, Carlsbad, Calif. Probenecid (250 mM) (catalog No. P8761) was from Sigma, Buchs, Switzerland. The cells were washed five times with FLIPR buffer to remove excess dye and intracellular calcium mobilization, [Ca^2+]i were measured using a Fluorometric Imaging Plate Reader (FLIPR-96, Molecular Devices, Menlo Park, Calif.) as described previously (Malherbe et al., Mol. Pharmacol., 64, 823-832, 2003). Orexin A (catalog No. 1455, Toris Cookson Ltd, Bristol, UK) was used as agonist. Orexin A ([…] stock solution in DMSO) was diluted in FLIPR buffer+0.1% BSA. The EC50 and EC80 values of orexin-A were measured daily from standard agonist concentration-response curves in CHO(dHFr-)-OX1R and -OX2R cell lines. All compounds were dissolved in 100% DMSO. Inhibition curves were determined by addition of 11 concentrations (0.0001-10 μM) of inhibitory compounds and using EC80 value of orexin-A as agonist (a concentration which gave 80% of max agonist response, determined daily). The antagonists were applied 25 min (incubation at 37° C.) before the application of the agonist. Responses were measured as peak increase in fluorescence minus basal, normalized to the maximal stimulatory effect induced by EC80 value of orexin-A or orexin-B. Inhibition curves were fitted according to the Hill equation: y=100/(1+(x/IC50)^nH), where nH=slope factor using Excel-fit 4 software (Microsoft).
(§3) Kb values were calculated according to the following equation Kb=IC50/(1+[A]/EC50) where A is the concentration of agonist added which is very close to agonist EC80 value, and IC50 and EC50 values were derived from the antagonist inhibition and orexin-A or B agonist curves, respectively.

[2] = molecular target: T2, human orexin-1 (hOX1) receptors (Homo sapiens, UniProt O43613); assay: Intracellular Ca2+ mobilization assay (FLIPR), CHO(dHFr-) cells expressing hOX1; assay type: cell-based; settings: antagonism of orexin-A at EC80; Kb=IC50/(1+[A]/EC50); CHO(dHFr-)-OX1R cells
T2 construct: expressed in transfected cells
T2 sequence (O43613 1-425): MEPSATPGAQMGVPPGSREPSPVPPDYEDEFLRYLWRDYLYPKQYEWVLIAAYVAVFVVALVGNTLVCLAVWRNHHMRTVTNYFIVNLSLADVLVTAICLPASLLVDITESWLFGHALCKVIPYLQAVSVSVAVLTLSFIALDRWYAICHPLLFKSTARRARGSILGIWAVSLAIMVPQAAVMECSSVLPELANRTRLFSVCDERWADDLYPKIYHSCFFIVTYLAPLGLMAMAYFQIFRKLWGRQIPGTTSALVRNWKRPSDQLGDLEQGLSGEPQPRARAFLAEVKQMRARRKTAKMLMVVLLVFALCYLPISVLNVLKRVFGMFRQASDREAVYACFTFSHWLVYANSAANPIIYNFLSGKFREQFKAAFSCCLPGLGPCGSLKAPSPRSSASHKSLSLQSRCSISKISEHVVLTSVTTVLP
Description: as §1, §2, §3

rat = settings: icv administration (Piper et al., 2000); cited from earlier work

| Molecule | Kb [1] | Kb [2] | reduction of total REM sleep (rat) |
| --- | --- | --- | --- |
| CNC(=O)C(c1ccccc1)N1CCc2ccsc2C1CCc1ccc(C(F)(F)F)cc1 (single isomer, unassigned) [Example 16, N-Methyl-2-phenyl-2-{7-[2-(4-trifluoromethyl-phenyl)-ethyl]-4,7-dihydro-5H-thieno[2,3-c]pyridin-6-yl}-acetamide] | 0.0148 µM | 0.0524 µM |  |
| CNC(=O)C(c1ccccc1)N1CCc2sc(C)c(C)c2C1CCc1ccc(OC)cc1 (single isomer, unassigned) [Example 13, 2-{4-[2-(4-Methoxy-phenyl)-ethyl]-2,3-dimethyl-6,7-dihydro-4H-thieno[3,2-c]pyridin-5-yl}-N-methyl-2-phenyl-acetamide] | 0.005 µM | 0.0402 µM |  |
| CNC(=O)C(c1ccccc1)N1CCc2sc(Cl)cc2C1CCc1ccc(OC)cc1 (single isomer, unassigned) [Example 17, 2-{2-Chloro-4-[2-(4-methoxy-phenyl)-ethyl]-6,7-dihydro-4H-thieno[3,2-c]pyridin-5-yl}-N-methyl-2-phenyl-acetamide] | 0.0462 µM | 0.0162 µM |  |
| CNC(=O)C(c1ccccc1)N1CCc2sc(C)cc2C1CCc1ccc(OC)cc1 (single isomer, unassigned) [Example 7, 2-{4-[2-(4-Methoxy-phenyl)-ethyl]-2-methyl-6,7-dihydro-4H-thieno[3,2-c]pyridin-5-yl}-N-methyl-2-phenyl-acetamide] | 0.0266 µM | 0.0311 µM |  |
| CNC(=O)C(c1ccccc1)N1CCc2sc(C)c(C)c2C1CCc1ccc(OC)cc1 (single isomer, unassigned) [Example 15, 2-{4-[2-(4-Methoxy-phenyl)-ethyl]-2,3-dimethyl-6,7-dihydro-4H-thieno[3,2-c]pyridin-5-yl}-N-methyl-2-phenyl-acetamide] | 0.0169 µM | 0.408 µM |  |
| CNC(=O)C(c1ccccc1)N1CCc2sc(Cl)cc2C1CCc1ccc(OC)cc1 (single isomer, unassigned) [Example 18, 2-{2-Chloro-4-[2-(4-methoxy-phenyl)-ethyl]-6,7-dihydro-4H-thieno[3,2-c]pyridin-5-yl}-N-methyl-2-phenyl-acetamide] | 0.032 µM | 0.0095 µM |  |
| OX-A: orexin-A/hypocretin1 hypothalamic neuropeptide, 33 amino acids; agonist of OX1R and OX2R (QPLPDCCRQKTCSCRLYELLHGAGNHAAGILTL; ends and bridges not checked; cysteine pairing not given here; UniProt O43612 34-66, looked up) |  |  | 84% |
| CNC(=O)C(c1ccccc1)N1CCc2sc(C)cc2C1CCc1ccc(OC)cc1 (single isomer, unassigned) [Example 8, 2-{4-[2-(4-Methoxy-phenyl)-ethyl]-2-methyl-6,7-dihydro-4H-thieno[3,2-c]pyridin-5-yl}-N-methyl-2-phenyl-acetamide] | 0.0075 µM | 0.0135 µM |  |
| CNC(=O)C(c1ccccc1)N1CCc2sc(C)cc2C1CCc1ccc(C(F)(F)F)cc1 (single isomer, unassigned) [Example 6, N-Methyl-2-{2-methyl-4-[2-(4-trifluoromethyl-phenyl)-ethyl]-6,7-dihydro-4H-thieno[3,2-c]pyridin-5-yl}-2-phenyl-acetamide] | 0.0091 µM | 0.0401 µM |  |
| CNC(=O)C(c1ccccc1)N1CCc2sc(C)cc2C1CCc1ccc(C(F)(F)F)cc1 (single isomer, unassigned) [Example 4, N-Methyl-2-{2-methyl-4-[2-(4-trifluoromethyl-phenyl)-ethyl]-6,7-dihydro-4H-thieno[3,2-c]pyridin-5-yl}-2-phenyl-acetamide] | 0.0204 µM | 0.047 µM |  |
| CNC(=O)C(c1ccccc1)N1CCc2sc(C)c(C)c2C1CCc1ccc(OC)cc1 (single isomer, unassigned) [Example 14, 2-{4-[2-(4-Methoxy-phenyl)-ethyl]-2,3-dimethyl-6,7-dihydro-4H-thieno[3,2-c]pyridin-5-yl}-N-methyl-2-phenyl-acetamide] | 0.0036 µM | 0.0221 µM |  |

Further lines, with some results ahead:

| Kb [1] | Kb [2] | Molecule | reduction of total REM sleep (rat) |
| --- | --- | --- | --- |
| 0.0852 µM | 0.223 µM | CNC(=O)C(c1ccccc1)N1CCc2ncccc2C1CCc1cccc(OC)c1 (single isomer, unassigned) [Example 23, 2-{5-[2-(3-Methoxy-phenyl)-ethyl]-7,8-dihydro-5H-[1,6]naphthyridin-6-yl}-N-methyl-2-phenyl-acetamide] |  |
| 0.0296 µM | 0.108 µM | CNC(=O)C(c1ccccc1)N1CCc2ncccc2C1CCc1cccc(OC)c1 (single isomer, unassigned) [Example 25, 2-{5-[2-(3-Methoxy-phenyl)-ethyl]-7,8-dihydro-5H-[1,6]naphthyridin-6-yl}-N-methyl-2-phenyl-acetamide] |  |
| 0.038 µM | 0.105 µM | CNC(=O)C(c1ccccc1)N1CCc2ncccc2C1CCc1ccc(OC)cc1 (single isomer, unassigned) [Example 22, 2-{5-[2-(4-Methoxy-phenyl)-ethyl]-7,8-dihydro-5H-[1,6]naphthyridin-6-yl}-N-methyl-2-phenyl-acetamide] |  |
| 0.0356 µM | 0.348 µM | CNC(=O)C(c1ccccc1)N1CCc2ncccc2C1CCc1ccc(C(F)(F)F)cc1 (single isomer, unassigned) [Example 26, N-Methyl-2-phenyl-2-{5-[2-(4-trifluoromethyl-phenyl)-ethyl]-7,8-dihydro-5H -[1,6]naphthyridin-6-yl}-acetamide] |  |
| 0.0215 µM | 0.164 µM | CNC(=O)C(c1ccccc1)N1CCc2ncccc2C1CCc1ccc(OC)cc1 (single isomer, unassigned) [Example 11, 2-{5-[2-(4-Methoxy-phenyl)-ethyl]-7,8-dihydro-5H-[1,6]naphthyridin-6-yl}-N-methyl-2-phenyl-acetamide] |  |
| 0.0601 µM | 0.301 µM | CNC(=O)C(c1ccccc1)N1CCc2ncccc2C1CCc1ccc(F)cc1 (single isomer, unassigned) [Example 28, 2-{5-[2-(4-Fluoro-phenyl)-ethyl]-7,8-dihydro-5H-[1,6]naphthyridin-6-yl}-N-methyl-2-phenyl-acetamide] |  |
| 0.0566 µM | 0.408 µM | CNC(=O)C(c1ccccc1)N1CCc2sc(C)cc2C1CCc1ccc(OC)cc1 (single isomer, unassigned) [Example 9, 2-{4-[2-(4-Methoxy-phenyl)-ethyl]-2-methyl-6,7-dihydro-4H-thieno[3,2-c]pyridin-5-yl}-N-methyl-2-phenyl-acetamide] |  |
